The text below walks through data of patent US20100204119A1, “4-AMINO-5-OXO-7,8-DIHYDROPYRIMIDO[5,4-F][1,4]OXAZEPIN-6(5H)-YL PHENYL DERIVATIVES” (Pfizer Inc, priority 2009, published 2010).

This assay has as its target T1, Human full-length diacylglycerol:acylCoA acyltransferase 1 (DGAT-1) (Homo sapiens, UniProt O75907).
T1 sequence (O75907 1-488): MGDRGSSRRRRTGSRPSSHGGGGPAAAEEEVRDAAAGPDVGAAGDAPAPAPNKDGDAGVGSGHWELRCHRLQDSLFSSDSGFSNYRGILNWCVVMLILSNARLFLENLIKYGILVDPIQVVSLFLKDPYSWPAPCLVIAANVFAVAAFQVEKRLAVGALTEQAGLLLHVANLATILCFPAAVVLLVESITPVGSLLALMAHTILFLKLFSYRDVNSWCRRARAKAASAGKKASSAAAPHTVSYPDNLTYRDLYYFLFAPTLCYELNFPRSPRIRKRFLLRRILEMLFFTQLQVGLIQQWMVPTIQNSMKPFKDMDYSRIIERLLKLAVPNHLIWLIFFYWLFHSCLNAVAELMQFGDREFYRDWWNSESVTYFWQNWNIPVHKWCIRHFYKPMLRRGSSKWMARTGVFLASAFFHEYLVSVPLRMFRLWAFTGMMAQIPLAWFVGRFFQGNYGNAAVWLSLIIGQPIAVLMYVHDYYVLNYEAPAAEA
The experiment in a line: In vitro assay for inhibition of DGAT-1 activity (DGAT 1 Reduced Microsome Multidose Assay). The conditions noted are these: average where n > 1.

Setting [1] is: Trial 1 Human IC50, Trial 1: as Trial 4 except microsomes at 25 μg/mL instead of 5 μg/mL.
Where [2] appears, read: Trial 4 Human IC50, Trial 4: eight concentrations of inhibitor, microsomes 5 μg/mL.
Setting [3] is: Trial 2 Human IC50, Trial 2: as Trial 4 except eleven concentrations of inhibitor instead of eight.
The mark [4] stands for this setting: Trial 3 Human IC50, Trial 3: as Trial 2 except compounds serially diluted in a different laboratory.

Each structure is given as a SMILES string.

Procedure: Human full-length diacylglycerol:acylCoA acyltransferase 1 (DGAT-1) was expressed in Sf9 insect cells which are then lysed and a crude membrane fraction (105,000×g pellet) was prepared.
Inhibitors in DMSO were pre-incubated with membranes before initiating the DGAT-1 reaction by the addition of decanoylCoA. […] The inhibitors were present at a range of eight concentrations to generate an apparent IC50 for each compound. […] Specifically, the eight concentrations used were 3 μM, 1 μM, 300 nM, 100 nM, 30 nM, 10 nM, 3 nM and 1 nM.
The reactions were allowed to proceed for 1.5 hours at room temperature and then terminated by the addition of 20 μl of EDTA (40 mM). Reaction mixture is then mixed by trituration with 30 μl of Microscint™-E (Perkin Elmer). […] Four separate trials were conducted. The method of analysis of Trial 1 was the same as Trial 4 (described above) except microsomes were utilized at 25 μg/mL instead of 5 μg/mL. The method of analysis of Trial 2 was the same as Trial 4 (described above) except eleven (11) concentrations of inhibitor were employed instead of eight (8). The method of analysis of Trial 3 was the same as Trial 2 except the compounds were serially diluted in a different laboratory.
Where this DGAT-1 inhibition assay was performed on a compound more than once, an average is provided for that compound.

For `CCN(Cc1nccn1C)C(=O)C[C@H]1CC[C@H](c2ccc(N3CCOc4ncnc(N)c4C3=O)cc2)CC1` [Example 6AS], 47.4 nM corresponded to half-maximal inhibition under setting [1] (IC50).
On to `COC(C)(C)c1ccc(N2C[C@@H](C)Oc3ncnc(N)c3C2=O)cc1` [Example 1AL, (8R)-4-amino-6-[4-(1-methoxy-1-methylethyl)phenyl]-8-methyl-7,8-dihydropyrimido[5,4-f][1,4]oxazepin-5(6H)-one], for which inhibition under setting [2] was half-maximal at 34.6 nM (IC50).
The same measure, in the same setting: the same measure for `C[C@@H]1CN(c2ccc(C(C)(C)F)cc2)C(=O)c2c(N)ncnc2O1` [Example 1L, (8R)-4-amino-6-[4-(1-fluoro-1-methylethyl)phenyl]-8-methyl-7,8-dihydropyrimido[5,4-f][1,4]oxazepin-5(6H)-one]: 46.1 nM.
`Nc1ncnc2c1C(=O)N(c1ccc(C3CCN(C(=O)CC4CCCC4)CC3)cc1)CCO2` [Example 7AE]: the IC50 – broadly, the concentration needed to halve the response being measured – came out at 41.2 nM under setting [3] and 92.3 nM under setting [4].
Under setting [1], `CC1CCCN1C(=O)C[C@H]1CC[C@H](c2ccc(N3CCOc4ncnc(N)c4C3=O)cc2)CC1` (stereo partly shown) [Example 6AI] came in with a half-maximal inhibitory concentration (IC50) of 80.4 nM.
The compound `CCN(C(=O)C[C@H]1CC[C@H](c2ccc(N3CCOc4ncnc(N)c4C3=O)cc2)CC1)C(C)(C)CO` [Example 6U] had a half-maximal inhibitory concentration (IC50) under setting [1] of 129 nM.
Still for that read-out and setting: the value for `CC1(O)CCN(C(=O)C[C@H]2CC[C@H](c3ccc(N4CCOc5ncnc(N)c5C4=O)cc3)CC2)CC1` [Example 6AP] was 107 nM; that for `CC(c1ccncc1)N(C)C(=O)C[C@H]1CC[C@H](c2ccc(N3CCOc4ncnc(N)c4C3=O)cc2)CC1` (stereo partly shown) [Example 6AU] was 75.5 nM; that for `Nc1ncnc2c1C(=O)N(c1ccc([C@H]3CC[C@H](CC(=O)N4CCC4)CC3)cc1)CCO2` [Example 6AW] was 73.2 nM.
`C[C@@H]1CN(c2ccc(C(O)C(F)(F)F)cc2)C(=O)c2c(N)ncnc2O1` (stereo partly shown) [Example 1R] had an IC50 under setting [2] of 37.7 nM.
The same measure, in the same setting: the value for `C[C@@H]1CN(c2ccc(C3(C(N)=O)CCCCC3)cc2)C(=O)c2c(N)ncnc2O1` [Example 1AE, 1-{4-[(8R)-4-amino-8-methyl-5-oxo-7,8-dihydropyrimido[5,4-f][1,4]oxazepin-6(5H)-yl]phenyl}cyclohexanecarboxamide] was 82.4 nM.
In the case of `Nc1ncnc2c1C(=O)N(c1ccc(C3CCN(C(=O)Cc4ncccn4)CC3)cc1)CCO2` [Example 7N], the IC50 by setting is: under setting [3], 119 nM; under setting [4], 234 nM.
Under setting [2], `CC(O)c1ccc(N2C[C@@H](C)Oc3ncnc(N)c3C2=O)cc1` (stereo partly shown) [Example 1W] returned a concentration for half-maximal inhibition (IC50) of 146 nM.
`N#CC1CCCN(C(=O)C[C@H]2CC[C@H](c3ccc(N4CCOc5ncnc(N)c5C4=O)cc3)CC2)C1` (stereo partly shown) [Example 6AO] gave a concentration for half-maximal inhibition (IC50) under setting [1] of 40 nM.
Compound `CC1(O)CCN(C(=O)C[C@H]2CC[C@H](c3ccc(N4CCOc5ncnc(N)c5C4=O)cc3)CC2)C1` (stereo partly shown) [Example 6AR] had an IC50 under setting [1] of 85.3 nM.
For `Nc1ncnc2c1C(=O)N(c1ccc(C3CCN(C(=O)CC4CCCOC4)CC3)cc1)CCO2` (stereo not shown) [Example 7E], the IC50 came out at 196 nM under setting [3] and 300 nM under setting [4].
For `CS(=O)(=O)CC(=O)N1CCC(c2ccc(N3CCOc4ncnc(N)c4C3=O)cc2)CC1` [Example 7T] the same measures were 123 nM and 217 nM.
With `Nc1ncnc2c1C(=O)N(c1ccc(C3CCN(C(=O)Cc4ccccc4)CC3)cc1)CCO2` [Example 7Y], the IC50 is 45.7 nM under setting [3] and 98.6 nM under setting [4].
Under setting [2], `C[C@@H]1CN(c2ccc(Cl)c(Cl)c2)C(=O)c2c(N)ncnc2O1` [Example 1AB, (8R)-4-amino-6-(3,4-dichlorophenyl)-8-methyl-7,8-dihydropyrimido[5,4-F][1,4]oxazepin-5(6H)-one] came in with a concentration for half-maximal inhibition (IC50) of 24.8 nM.
`C[C@@H]1CN(c2ccc(CC(N)=O)cc2)C(=O)c2c(N)ncnc2O1` [Example 1AM, (8R)-2-(4-(4-amino-8-methyl-5-oxo-7,8-dihydropyrimido[5,4-f][1,4]oxazepin-6(5H)-yl)phenyl)acetamide]: the half-inhibitory concentration (IC50) under setting [2] is 313 nM.
